Assay results published in patent US20050209157A1, “Short bioactive peptides and methods for their use” (priority 2001, published 2005).
No end group written: not given here.

Tests used:
HeLaS3 = assay: Anti-cancer assay, MTT, LD50; format: cell-based; details: 24 hours with peptide, cervical carcinoma
Source text: (§1) Numbers are LD50 values (μg/mL).

H1299 = assay: Anti-cancer assay, MTT, LD50; format: cell-based; details: 24 hours with peptide, lung large cell carcinoma
Source text: as §1

SW480 = assay: Anti-cancer assay, MTT, LD50; format: cell-based; details: SW480 colon adenocarcinoma line, 24 hours with peptide
Source text: as §1

BMKC = assay: Anti-cancer assay, MTT, LD50; format: cell-based; details: BMKC cloned melanoma line, 24 hours with peptide
Source text: as §1

PC3 = assay: Anti-cancer assay, MTT, LD50; format: cell-based; details: 24 hours with peptide, prostate adenocarcinoma
Source text: as §1

MCF7 = assay: Anti-cancer assay, MTT, LD50; format: cell-based; details: MCF7 breast adenocarcinoma line, MTT, 24 hours with peptide
Source text: as §1

[1] = test system: Staphylococcus aureus ATCC 6538; assay: Antimicrobial assay I, MIC by OD measurement; format: cell-based; details: 37° C. for 24 hours, absorbance 620 nm
Source text: (§2) The data for the following antimicrobial assay of the peptides have been obtained by making OD measurements in in vitro cell culture experiments with and without added peptide. The protocol used is as follows.
(§3) Cell lines included Staphylococcus aureus ATCC 6538 or 25923, Pseudomonas aeruginosa ATCC 9027 or 27853. Medium used were Antibiotic Medium 3 (Difco), Antibiotic Medium 2 (Difco), and 0.85% saline. Controls used were physiological saline, and gentamycin at 50, 25, 10, 5, 1, and 0.1 ppm.
(§4) Absorbance was read at 620 nm after shaking to resuspend cells.
(§5) Staph6538 is Staphylococcus aureus ATCC accession number 6538; paerug9027 is Pseudomonas aeruginosa ATCC accession number 9027, yeast is Saccharomyces cerevisiae.

[2] = test system: Pseudomonas aeruginosa ATCC 9027; assay: Antimicrobial assay I, MIC by OD measurement; format: cell-based; details: 37° C. for 24 hours, absorbance 620 nm
Source text: as §2, §3, §4, §5

in vitro [3] = format: cell-based, human; details: human, human red blood cells, pH 7, hemolytic assay, concentration at 50% hemolysis, 1 hour at 37° C.; read-out: LD50
Experimental: This hemolytic assay is based upon that presented in Journal of Peptide Research 53: 82-90 (1999). […] All procedures were performed according to safety protocols pertaining to the handling and disposal of human body fluids.
Red blood cells (RBCs) were washed three times with PBS (35 mM phosphate buffer 0.15 M NaCl, pH 7.0). RBCs suspended in PBS (0.4% (v/v); about 10 ml per 15 peptides) were prepared. Suspensions (100 μl) were aliquoted to each sample and control tube. Serially diluted peptide solutions (100 μl) were pipetted into the sample tubes. Negative control tubes contained 100 μl PBS; positive control tubes contained 100 μl 1% Triton-X100 detergent. All tubes were incubated for 1 hour at 37° C. The tubes were removed from the incubator and centrifuged at 1000 g for 5 minutes. Supernatant (100 μl) was pipetted to a 96-well polyvinyl chloride plate. The absorbance at 414 nm (A414) was measured, and used to calculate the percent hemolysis according to the following formula. [formula]

[4] = test system: yeast (Saccharomyces cerevisiae); assay: Antimicrobial assay I, yeast assay in RPMI 1640; format: cell-based; details: RPMI 1640 media
Experimental: as §2, §4
The yeast assay was performed in RPMI 1640 media (pH 7.0 at 25° C.).
as §5

in vitro [5] = details: human, WI38 normal lung fibroblast cells, 24 hours with peptide
WI38 = details: MTT, 24 hours with peptide; for WI38 LD50: normal fibroblast line; for LD50 WI38: WI38 normal lung fibroblast line
[6] = LD50 WI38, WI38 normal lung fibroblast line, MTT

Compound: KWKLFKKALKKLKKALKKAL-NH2 [P104]
- HeLaS3 LD50 (HeLaS3): 130 µg/mL
- H1299 LD50 (H1299): 52 µg/mL
- LD50 SW480 (SW480): 54 µg/mL
- LD50 BMKC (BMKC): 100 µg/mL
- PC3 LD50 (PC3): 18 µg/mL
- LD50 MCF7 (MCF7): 11 µg/mL
- staph6538 (MIC) [1]: 10 µg/mL
- paerug9027 (MIC) [2]: 10 µg/mL
- HC50 at 1 h (in vitro [3]): 70 µg/mL
- yeast (MIC or MFC) [4]: 200 µg/mL
- CC50 at 24 h (in vitro [5]; [6]): 24 µg/mL
- WI38 LD50 (WI38): 24 µg/mL

Compound: ILPWKWPWWPWRR-COOH [P91, reference compound]
- HeLaS3 LD50 (HeLaS3): 20 µg/mL
- H1299 LD50 (H1299): 64 µg/mL
- LD50 SW480 (SW480): 30 µg/mL
- LD50 BMKC (BMKC): 180 µg/mL
- PC3 LD50 (PC3): 31 µg/mL
- LD50 MCF7 (MCF7): 12 µg/mL
- staph6538 (MIC) [1]: 10 µg/mL
- paerug9027 (MIC) [2]: > (> indicates greater than 200 μg/mL)
- yeast (MIC or MFC) [4]: > (> indicates greater than 200 μg/mL)

Compound: KLLKLLLKLYKKLLKLL-OH [P156]
- HeLaS3 LD50 (HeLaS3): > (> indicates greater than 1000)
- LD50 SW480 (SW480): 345 µg/mL
- LD50 BMKC (BMKC): 520 µg/mL
- PC3 LD50 (PC3): 260 µg/mL
- LD50 MCF7 (MCF7): 135 µg/mL
- staph6538 (MIC) [1]: 15 µg/mL
- paerug9027 (MIC) [2]: > (> indicates greater than 200 μg/mL)
- HC50 at 1 h (in vitro [3]): 10 µg/mL
- yeast (MIC or MFC) [4]: > (> indicates greater than 200 μg/mL)
- CC50 at 24 h (in vitro [5]; [6]): 230 µg/mL
- WI38 LD50 (WI38): 230 µg/mL

Compound: FALLKL-NH2 [P168, FALLKL-NH2]
- HeLaS3 LD50 (HeLaS3): > (> indicates greater than 1000)
- H1299 LD50 (H1299): > (> indicates greater than 1000)
- LD50 SW480 (SW480): > (> indicates greater than 1000)
- LD50 BMKC (BMKC): 590 µg/mL
- PC3 LD50 (PC3): > (> indicates greater than 1000)
- LD50 MCF7 (MCF7): 630 µg/mL
- staph6538 (MIC) [1]: 50 µg/mL
- paerug9027 (MIC) [2]: 100 µg/mL
- HC50 at 1 h (in vitro [3]): 600 µg/mL
- yeast (MIC or MFC) [4]: > (> indicates greater than 200 μg/mL)
- WI38 LD50 (WI38): > (> indicates greater than 1000)
- LD50 WI38 (WI38): > (> indicates greater than 1000)

Compound: FAKKLAKKLKKLAKKLAK-NH2 [Shiva 10 (1-18) AM]
- HeLaS3 LD50 (HeLaS3): 190 µg/mL
- H1299 LD50 (H1299): 71 µg/mL
- PC3 LD50 (PC3): 81 µg/mL
- HC50 at 1 h (in vitro [3]): 900 µg/mL
- CC50 at 24 h (in vitro [5]; WI38 LD50, MTT, normal fibroblast line): 101 µg/mL

Compound: FKVKFKVKVK-NH2 [P303, reference compound]
- HeLaS3 LD50 (HeLaS3): > (> indicates greater than 1000)
- H1299 LD50 (H1299): 345 µg/mL
- LD50 SW480 (SW480): 530 µg/mL
- LD50 BMKC (BMKC): 330 µg/mL
- PC3 LD50 (PC3): 530 µg/mL
- LD50 MCF7 (MCF7): 315 µg/mL
- HC50 at 1 h (in vitro [3]): 500 µg/mL
- CC50 at 24 h (in vitro [5]; [6]): 355 µg/mL
- WI38 LD50 (WI38): 355 µg/mL

Compound: FALALKALKKLKKALKKAL-OH [P28]
- HeLaS3 LD50 (HeLaS3): 80 µg/mL
- H1299 LD50 (H1299): 54 µg/mL
- LD50 SW480 (SW480): 59 µg/mL
- LD50 BMKC (BMKC): 93 µg/mL
- PC3 LD50 (PC3): 16 µg/mL
- LD50 MCF7 (MCF7): 65 µg/mL
- HC50 at 1 h (in vitro [3]): 700 µg/mL
- CC50 at 24 h (in vitro [5]; [6]): 101 µg/mL
- WI38 LD50 (WI38): 101 µg/mL

Compound: FALALKA-NH2 [P141, FALALKA-NH2]
- HeLaS3 LD50 (HeLaS3): > (> indicates greater than 1000)
- H1299 LD50 (H1299): > (> indicates greater than 1000)
- LD50 SW480 (SW480): 560 µg/mL
- LD50 BMKC (BMKC): 465 µg/mL
- LD50 MCF7 (MCF7): 430 µg/mL
- staph6538 (MIC) [1]: 15 µg/mL
- paerug9027 (MIC) [2]: 50 µg/mL
- HC50 at 1 h (in vitro [3]): 900 µg/mL
- yeast (MIC or MFC) [4]: 200 µg/mL
- CC50 at 24 h (in vitro [5]; [6]): 420 µg/mL
- WI38 LD50 (WI38): 420 µg/mL

Compound: FALALKALKKALKKLKKALKKAL-OH [P1, reference compound]
- staph6538 (MIC) [1]: 5 µg/mL
- paerug9027 (MIC) [2]: 10 µg/mL
- HC50 at 1 h (in vitro [3]): 100 µg/mL
- yeast (MIC or MFC) [4]: > (> indicates greater than 200 μg/mL)

Compound: KWKLFKKIGAVLKVL-NH2 [P53, reference compound]
- HeLaS3 LD50 (HeLaS3): 30 µg/mL
- H1299 LD50 (H1299): 65 µg/mL
- LD50 BMKC (BMKC): 40 µg/mL
- PC3 LD50 (PC3): 40 µg/mL
- LD50 MCF7 (MCF7): 45 µg/mL
- staph6538 (MIC) [1]: 5 µg/mL
- paerug9027 (MIC) [2]: 15 µg/mL
- HC50 at 1 h (in vitro [3]): 20 µg/mL
- yeast (MIC or MFC) [4]: 50 µg/mL
- CC50 at 24 h (in vitro [5]; [6]): 32 µg/mL
- WI38 LD50 (WI38): 32 µg/mL

Compound: FAKKLAKKLKKLAKKLIGAVLKV-OH [P99]
- staph6538 (MIC) [1]: 100 µg/mL
- paerug9027 (MIC) [2]: > (> indicates greater than 200 μg/mL)
- HC50 at 1 h (in vitro [3]): 25 µg/mL
- yeast (MIC or MFC) [4]: > (> indicates greater than 200 μg/mL)

Compound: CC[C@H](C)[C@H](NC(=O)CN)C(=O)NCC(=O)N[C@@H](C)C(=O)N[C@H](C(=O)N[C@@H](CC(C)C)C(=O)N[C@@H](CCCCN)C(=O)N[C@H](C(=O)N[C@@H](CC(C)C)C(=O)N[C@H](C(=O)N[C@H](C(=O)NCC(=O)N[C@@H](CC(C)C)C(=O)N1CCC[C@H]1C(=O)N[C@@H](C)C(=O)N[C@@H](CC(C)C)C(=O)N[C@H](C(=O)N[C@@H](CO)C(=O)N[C@@H](Cc1c[nH]c2ccccc12)C(=O)N[C@H](C(=O)N[C@@H](CCCCN)C(=O)N[C@@H](CCCNC(=N)N)C(=O)N[C@@H](CCCCN)C(=O)N[C@@H](CCCNC(=N)N)C(=O)N[C@@H](CCC(N)=O)C(=O)N[C@@H](CCC(N)=O)C(N)=O)[C@@H](C)CC)[C@@H](C)CC)[C@@H](C)O)[C@@H](C)O)C(C)C)C(C)C [P108, reference compound]
- staph6538 (MIC) [1]: 5 µg/mL
- paerug9027 (MIC) [2]: > (> indicates greater than 200 μg/mL)
- yeast (MIC or MFC) [4]: 25 µg/mL

Compound: FAFGKGIGKIGKKGL-NH2 [P138]
- HeLaS3 LD50 (HeLaS3): > (> indicates greater than 1000)
- H1299 LD50 (H1299): > (> indicates greater than 1000)
- LD50 SW480 (SW480): > (> indicates greater than 1000)
- LD50 BMKC (BMKC): > (> indicates greater than 1000)
- PC3 LD50 (PC3): > (> indicates greater than 1000)
- LD50 MCF7 (MCF7): > (> indicates greater than 1000)
- staph6538 (MIC) [1]: > (> indicates greater than 200 μg/mL)
- paerug9027 (MIC) [2]: > (> indicates greater than 200 μg/mL)
- HC50 at 1 h (in vitro [3]): 20 µg/mL
- yeast (MIC or MFC) [4]: > (> indicates greater than 200 μg/mL)
- WI38 LD50 (WI38): > (> indicates greater than 1000)
- LD50 WI38 (WI38): > (> indicates greater than 1000)
